# Where two headings read alike, the source gives them in different places.
# Key:
# [1] = molecular target: CYP3A4 (Homo sapiens, UniProt P08684); experiment: Progesterone binding to CYP3A4 (authors' estimate of Kd)
# Protocol: Equal amounts of DMSO were added to the protein solutions to avoid buffer-related changes in fluorol emission. Fluorescence changes were monitored with λex of 455 nm and a 495 nm cutoff emission filter. […] Kinetics were analyzed using the Igor Pro software (WaveMetrics, Oswego, OR, USA).
# [2] = molecular target: T1, WT CYP3A4 (Homo sapiens, UniProt P08684); experiment: Equilibrium absorbance titrations of CYP3A4 with progesterone; format: binding
# T1 construct: made in house
# T1 sequence (P08684 with tags, fused parts or gaps): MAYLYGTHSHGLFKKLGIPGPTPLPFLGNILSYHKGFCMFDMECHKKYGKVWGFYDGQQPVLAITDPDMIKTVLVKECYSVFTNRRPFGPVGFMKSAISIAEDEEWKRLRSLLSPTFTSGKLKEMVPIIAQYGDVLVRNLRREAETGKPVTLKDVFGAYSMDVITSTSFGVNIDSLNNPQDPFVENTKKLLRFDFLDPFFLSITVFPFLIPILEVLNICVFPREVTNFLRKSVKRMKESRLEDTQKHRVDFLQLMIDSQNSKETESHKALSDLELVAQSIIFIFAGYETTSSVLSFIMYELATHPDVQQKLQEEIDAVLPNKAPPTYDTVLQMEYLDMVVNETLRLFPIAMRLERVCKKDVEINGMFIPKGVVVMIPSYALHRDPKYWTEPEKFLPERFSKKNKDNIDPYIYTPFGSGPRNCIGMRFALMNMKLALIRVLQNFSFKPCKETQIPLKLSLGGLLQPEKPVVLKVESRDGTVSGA
# [3] = molecular target: T2, T224A CYP3A4 (Homo sapiens, UniProt P08684, T224A); experiment: as above; format: binding
# T2 construct: made in house
# T2 sequence (P08684 with tags, fused parts or gaps T224A): as the sequence (P08684 with tags, fused parts or gaps) above, with T204A counted along it
# Sequence of CYP3A4 (P08684 whole entry): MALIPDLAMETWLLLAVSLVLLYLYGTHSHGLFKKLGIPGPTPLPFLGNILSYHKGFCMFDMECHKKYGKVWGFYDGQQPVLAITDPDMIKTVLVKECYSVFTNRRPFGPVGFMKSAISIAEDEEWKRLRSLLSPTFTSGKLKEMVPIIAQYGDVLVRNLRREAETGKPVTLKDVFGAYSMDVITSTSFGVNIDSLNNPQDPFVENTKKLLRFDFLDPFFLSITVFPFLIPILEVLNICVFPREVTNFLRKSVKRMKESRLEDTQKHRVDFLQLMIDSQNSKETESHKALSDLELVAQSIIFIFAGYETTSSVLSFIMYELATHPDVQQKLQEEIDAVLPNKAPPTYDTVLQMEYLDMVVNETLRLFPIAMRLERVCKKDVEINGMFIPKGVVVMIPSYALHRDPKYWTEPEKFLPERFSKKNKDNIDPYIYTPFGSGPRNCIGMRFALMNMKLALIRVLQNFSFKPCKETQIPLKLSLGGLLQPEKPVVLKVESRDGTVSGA
compound,measurement,setting,value
CC(=O)[C@H]1CC[C@H]2[C@@H]3CCC4=CC(=O)CC[C@]4(C)[C@H]3CC[C@]12C [progesterone],Kd,[1]; human,45 µM
same,Kd,"[1]; our estimate, read-out: Kd, high-affinity site",5 µM
same,S50 (concentration at half saturation),"[2]; 2 μM WT CYP3A4, sigmoidal fitting",32 ± 2 µM
same,High-spin content in PRG-bound CYP3A4,"[2]; end of titration, WT",71%
same,Hill coefficient (nH),[3]; 2 μM T224A CYP3A4,1.37
same,S50 (concentration at half saturation),"[3]; 2 μM T224A CYP3A4, sigmoidal fitting",25 ± 4 µM
same,Decrease in the high-spin content on elimination of Thr224,"[3]; PRG-bound, T224A vs WT",9%
same,High-spin content in PRG-bound CYP3A4,"[3]; end of titration, T224A",62%
